{"source": "patent US20080176811A1", "about": "“NOVEL FLAVONE GLYCOSIDE DERIVATIVES FOR USE IN COSMETICS, PHARMACEUTICALS AND NUTRITION” (priority 2000, published 2008)", "key": {"[1]": {"tested_on": "TIMP-mRNA", "assay": "Light-induced expression of TIMP-mRNA in skin models (Northern blot)", "assay_type": "cell-based", "conditions": "for TIMP expression: 0 ppm unexposed = 100; for percentage change in the expression of TIMP: by comparison with exposed, untreated cultures", "protocol": "(§1) To this end, the quantity of mRNA was quantified for MMP1, TIMP and Colaα1. Skin models were treated with the test substances for 12 hours and then exposed to simulated sunlight corresponding to a dose of 10 J UV-A/cm^2. After another 48 hours in the presence of the active substances, the RNA of the cells was prepared and analyzed by Northern blots with specific gene probes. To monitor the quantity of RNA used in the experiments, Northern blots were carried out with an 18S-specific gene probe. To quantify the signal intensities, the autoradiograms were evaluated by densitometry and the values of the signals for MMP1, TIMP and Colα1, were related to the associated values of the 18S signals. The figures in Table 1 represent the densitometric quantification of the signals of a Northern blot after normalization thereof."}, "[2]": {"tested_on": "fungal tyrosinase (Sigma)", "assay": "Inhibition of tyrosinase activity (L-DOPA to dopachromium, absorption at 475 nm)", "assay_type": "biochemical", "conditions": "for Residual tyrosinase activity in %: without active substance = 100%", "protocol": "Tyrosinases physiologially catalyze an important step in the synthesis of melanin (L-dopa to L-dopaquinone which is further cyclized and re-reacted by a tyrosinase to dopachromium). Accordingly, inhibition of the tyrosinase can lead to a skin lightening effect.\nThe activity of fungal tyrosinase (Sigma) was determined in the presence of various concentrations of the active substances according to the invention by enzymatic reaction of LDOPA to dopachromium. The absorption maximum of dopachromium (red-brown) is at λ=475 nm. The linear increase in the absorption (A) of the dopachromium per unit of time (t) is a measure of the activity of the tyrosinase (ΔN/Δt). The activity of the tyrosinase in the absence of the active substances (ΔA1/Δt1) was used as reference (100%). Under analogous conditions, the residual tyrosinase activity was determined in the presence of the active substances (ΔA2/Δt2). Each measurement was carried out twice in parallel runs. The variation of the results of the method is ca.±10%.\n50 mM KH2PO4 buffer in bidist. water (adjustment to pH 6.5 with 1 M aqueous KOH) 2.5 mM L-DOPA in bidist. water 340 U/ml tyrosinase stock solution in cold KH2PO4 buffer, pH 6.5. Stock solutions of the active substance to be tested in bidist. water or ethanol in which the concentration of the active substance was 10 times higher than indicated in the line “active substance concentration in the test system” under “results”.\nLike the tyrosinase stock solution, the reaction cocktail was prepared just before the beginning of the test. The tyrosinase stock solution has to be kept in a refrigerator. The L-DOPA solutions should be stored in darkness and in tightly closed containers in the absence of oxygen. If it turns grey in color (oxidation by atmospheric oxygen), the solution must be freshly prepared.\n33 μl tyrosinase stock solution 100 μl active substance stock solution reaction cocktail to 1000 μl\nThe activity of the tyrosinase in the absence of the active substances was used as reference (100%). All samples were thoroughly mixed in a Vibrofix before the beginning of the measurement. The pH value was monitored and if necessary was adjusted to pH 6.5. The measurement was carried out with a Kontron Uvikon 860 photometer. The absorption of the dopachromium was detected for 5 mins. at 25° C. at the absorption maximum X of 475 nm, the measuring time being 20-30 s."}, "[3]": {"tested_on": "MMP-1-mRNA", "assay": "Light-induced expression of MMP-1-mRNA in skin models (Northern blot)", "assay_type": "cell-based", "conditions": "for MMP 1 expression: 0 ppm unexposed = 100; for percentage change in the expression of MMP: by comparison with exposed, untreated cultures", "protocol": "as §1"}, "[4]": {"tested_on": "Dermal fibroblasts of human skin", "assay": "Phototoxicity, MTT test after simulated sunlight (10 J UV-A/cm^2)", "assay_type": "cell-based", "protocol": "Dermal fibroblasts of human skin were cultivated with increasing concentrations of retinol (Table 1), 6-O-naringin-(p-Cl-phenylacetic acid)ester (Table 2) and 6-O-naringin-(3-phenylpropionic acid)-ester (Table 3). The phototoxicity of the substances was measured by an MTT test. To determine phototoxicity, the treated cells were exposed to simulated sunlight corresponding to a dose of 10 J UV-A/cm^2. The vitality of untreated cells was put at 100% and all other values were related to that value.\nThe exposure of the cells was carried out with a sunlight simulator from the emission spectrum of which the UV-A component of the radiation was measured for quantification. The advantage of this experimental design is the fact that the complete spectrum of the sunlight is used so that the everyday situation is excellently simulated. By contrast, many other research laboratories use pure UV-A and for UV-B lamps."}, "[5]": {"tested_on": "Colα1-mRNA", "assay": "Light-induced expression of Colα1-mRNA in skin models (Northern blot)", "assay_type": "cell-based", "conditions": "for Collagen expression: exposed, 0 ppm unexposed = 100; for percentage change in the expression of Colα1: by comparison with exposed, untreated cultures", "protocol": "as §1"}, "[6]": {"tested_on": "fibroblasts", "assay": "Collagen production at protein level, fibroblasts in three-dimensional culture system", "assay_type": "cell-based", "conditions": "5 days, treated against untreated cultures", "protocol": "On the sixth day, the quantity of collagen formed compared with non-collagen protein was determined via the incorporation of titrated protein."}}, "note": "“Also recorded” adds a separate entry of the source. Where two headings read alike, the source gives them in different places."}
{"compound": "CC1OC(OC2C(Oc3cc(O)c4c(c3)OC(c3ccc(O)cc3)CC4=O)OC(COC(=O)Cc3ccc(Cl)cc3)C(O)C2O)C(O)C(O)C1O", "note": "(stereo not shown) [6-O-naringin-(p-Cl-phenylacetic acid)-ester]", "values": [{"measurement": "TIMP expression", "setting": "[1]; 5 ppm, exposed", "result": 62, "unit": "%"}, {"measurement": "expression of TIMP (in words)", "setting": "[1]; 50 ppm", "result": "only slightly affected; also recorded: only a slight effect"}, {"measurement": "TIMP expression", "setting": "[1]; 50 ppm, exposed", "result": 77, "unit": "%"}, {"measurement": "percentage change in the expression of TIMP", "setting": "[1]; 50 ppm", "result": "−15", "unit": "%"}, {"measurement": "Residual tyrosinase activity in %", "setting": "[2]; active substance 0.01% (w/v in 98% ethanol)", "result": 45.1, "unit": "%"}, {"measurement": "Residual tyrosinase activity in %", "setting": "[2]; active substance 0.1% (w/v in 98% ethanol)", "result": 15.4, "unit": "%"}, {"measurement": "MMP 1 expression", "setting": "[3]; 5 ppm, exposed (10 J UV-A/cm^2)", "result": 129, "unit": "%"}, {"measurement": "sunlight-induced expression of MMP-1 (in words)", "setting": "[3]; 50 ppm", "result": "very effectively reduced"}, {"measurement": "MMP 1 expression", "setting": "[3]; 50 ppm, exposed", "result": 40, "unit": "%"}, {"measurement": "percentage change in the expression of MMP", "setting": "[3]; 50 ppm", "result": "−70", "unit": "%"}, {"measurement": "Vitality (%; in brackets: SEM)", "setting": "[4]; 5 ppm, 10 J UV-A/cm^2, untreated cells = 100%", "result": "115 (15) %"}, {"measurement": "Vitality (%; in brackets: SEM)", "setting": "[4]; 10 ppm, 10 J UV-A/cm^2, untreated cells = 100%", "result": "96 (17.2) %"}, {"measurement": "Vitality (%; in brackets: SEM)", "setting": "[4]; 50 ppm, 10 J UV-A/cm^2, untreated cells = 100%", "result": "81 (8.3) %"}, {"measurement": "Vitality (%; in brackets: SEM)", "setting": "[4]; 100 ppm, 10 J UV-A/cm^2, untreated cells = 100%", "result": "3 (1.7) %"}, {"measurement": "Vitality (%; in brackets: SEM)", "setting": "[4]; 500 ppm, 10 J UV-A/cm^2, untreated cells = 100%", "result": "3 (1.8) %"}, {"measurement": "Phototoxicity (in words)", "setting": "[4]; compared with retinol, 10 J UV-A/cm^2", "result": "only show toxic effects in relatively high concentrations"}, {"measurement": "Collagen expression", "setting": "[5]; 5 ppm", "result": 56, "unit": "%"}, {"measurement": "Collagen expression", "setting": "[5]; 50 ppm", "result": 79, "unit": "%"}, {"measurement": "percentage change in the expression of Colα1", "setting": "[5]; 50 ppm", "result": 27, "unit": "%"}, {"measurement": "expression of Colα1 (in words)", "setting": "[5]; 50 ppm, in relation to the exposed, untreated sample", "result": "distinctly increased"}, {"measurement": "Increase in collagen production", "setting": "[6]; 5 ppm", "result": "−3", "unit": "%"}, {"measurement": "Increase in collagen production", "setting": "[6]; 50 ppm", "result": 41, "unit": "%"}]}
{"compound": "CC1=C(/C=C/C(C)=C/C=C/C(C)=C/CO)C(C)(C)CCC1", "note": "[retinol, reference compound]", "values": [{"measurement": "Phototoxicity (in words)", "setting": "[4]", "result": "toxic in very low concentrations"}, {"measurement": "Vitality (%; in brackets: SEM)", "setting": "[4]; human, 0.0028 ppm", "result": "99 (7.4) %"}, {"measurement": "Vitality (%; in brackets: SEM)", "setting": "[4]; human, 0.014 ppm", "result": "95 (19.8) %"}, {"measurement": "Vitality (%; in brackets: SEM)", "setting": "[4]; human, 0.028 ppm", "result": "80 (25.9) %"}, {"measurement": "Vitality (%; in brackets: SEM)", "setting": "[4]; human, 0.14 ppm", "result": "28 (11.8) %"}, {"measurement": "Vitality (%; in brackets: SEM)", "setting": "[4]; human, 0.28 ppm", "result": "4 (2.1) %"}]}
{"compound": "C[C@@H]1O[C@@H](O[C@H]2[C@H](Oc3cc(O)c4c(c3)O[C@H](c3ccc(O)cc3)CC4=O)O[C@H](COC(=O)CCc3ccccc3)[C@@H](O)[C@@H]2O)[C@H](O)[C@H](O)[C@H]1O", "note": "[6-O-naringin-(3-phenylpropionic acid)-ester]", "values": [{"measurement": "TIMP expression", "setting": "[1]; 10 ppm, exposed", "result": 104, "unit": "%"}, {"measurement": "TIMP production (in words)", "setting": "[1]; 100 ppm", "result": "increased TIMP production considerably"}, {"measurement": "increase in expression of TIMP", "setting": "[1]; 100 ppm, exposed", "result": "around 35%"}, {"measurement": "TIMP expression", "setting": "[1]; 100 ppm, exposed", "result": 134, "unit": "%"}, {"measurement": "percentage change in the expression of TIMP", "setting": "[1]; 100 ppm", "result": 50, "unit": "%"}, {"measurement": "Residual tyrosinase activity in %", "setting": "[2]; active substance 0.005% (w/v in bidist H2O)", "result": 98.9, "unit": "%"}, {"measurement": "Residual tyrosinase activity in %", "setting": "[2]; active substance 0.05% (w/v in bidist H2O)", "result": 69.1, "unit": "%"}, {"measurement": "Residual tyrosinase activity in %", "setting": "[2]; active substance 0.5% (w/v in bidist H2O)", "result": 0.7, "unit": "%"}, {"measurement": "IC 50 (tyrosinase)", "setting": "[2]; w/v in bidist H2O", "result": 0.18, "unit": "%"}, {"measurement": "MMP 1 expression", "setting": "[3]; 10 ppm, exposed", "result": 167, "unit": "%"}, {"measurement": "sunlight-induced expression of MMP-1 (in words)", "setting": "[3]; 100 ppm", "result": "reduced the sunlight-induced expression of MMP-1 to the level of the unexposed, untreated sample"}, {"measurement": "MMP 1 expression", "setting": "[3]; 100 ppm, exposed", "result": 87, "unit": "%"}, {"measurement": "percentage change in the expression of MMP", "setting": "[3]; 100 ppm", "result": "−37", "unit": "%"}, {"measurement": "Phototoxicity (in words)", "setting": "[4]", "result": "only show toxic effects in relatively high concentrations"}, {"measurement": "Collagen expression", "setting": "[5]; 10 ppm", "result": 74, "unit": "%"}, {"measurement": "expression of Colα1 (in words)", "setting": "[5]; 100 ppm", "result": "increased to the level of the unexposed, untreated culture"}, {"measurement": "Collagen expression", "setting": "[5]; 100 ppm", "result": 99, "unit": "%"}, {"measurement": "percentage change in the expression of Colα1", "setting": "[5]; 100 ppm", "result": 64, "unit": "%"}, {"measurement": "Increase in collagen production", "setting": "[6]; 1 ppm", "result": 8, "unit": "%"}, {"measurement": "Increase in collagen production", "setting": "[6]; 10 ppm", "result": 8, "unit": "%"}, {"measurement": "Increase in collagen production", "setting": "[6]; 100 ppm", "result": 19, "unit": "%"}]}
